Patent US12338199B2, “Bis-octahydrophenanthrene carboxamides and protein conjugates thereof” (REGENERON PHARMACEUTICALS, INC., priority 2017, dated 2025)

Assays:
[1] = tested on: THP1/LXR-Luc cells; test: THP1/LXR-Luc luciferase reporter bioassay; format: cell-based; conditions: Homo sapiens, THP-1, 48 hours; for EC50: read-out: Activation of THP1/LXR-Luc cells: EC50; for Emax: relative to maximum activation of free payload 9d, read-out: Activation of THP1/LXR-Luc cells: Fold of activation
From the text: The fold activation in the cell-based assays (as described in Example 68, below) was defined based on the maximum activation of the free payload 9d.
A bioassay was developed to assess the activity of LXR agonists after internalization of an agonist or of a ncADC into cells and binding to LXR, a nuclear receptor, using a commercially available LXR reporter (referred to as LXR-Luc) that contains the firefly luciferase gene under control by minimal CMV promoter and tandem repeats of the LXR transcriptional response element. For this assay, a THP1 cell line, which is a human monocytic leukaemia line, was engineered to express full length human Her2 (expressing amino acids M1 through V1255 of accession number NP_004439.2). The subsequent stable cell line was further transduced with a Cignal LXR Luc Reporter (Qiagen, Cat # CLS-7041L). The resulting stable cell line is referred to herein as THP1/Her2/LXR-Luc. The Her2 cell surface expression on THP1/Her2/LXR-Luc cell line was confirmed by FACS (data not shown).
Additionally, a THP1 cell line was transduced with a Cignal LXR Luc Reporter (Qiagen, Cat # CLS-7041L) without the addition of Her2. The resulting stable cell line is referred to herein as THP1/LXR-Luc. All of the antibodies used in the subsequent bioassays were assessed for their ability to internalize and release a payload on the bioassay cell line used.
This example assessed the ability of the LXR agonists provided herein, reference compounds, and anti-Her2 antibody-LXR ncADC to activate LXR. The samples were tested in the THP1/LXR-Luc/Her2 bioassay. For the assay, either THP1/LXR-Luc cells or THP1/LXR-Luc/Her2 cells were seeded onto white 96 well plates at 30,000 cells/well in media containing RPMI supplemented with 10% FBS and pencillin/streptomycin (complete media). Subsequently 3-fold serial dilutions of antibody drug conjugates, unconjugated antibodies, or free payloads were added to the cells at final concentration ranging from 100 nM to 0.01 nM. After 48-hour or 72-hour incubation, luciferase activity was determined after the addition of One-Glo™ reagent (Promega, Cat # E6130) to each well of cells. Relative light units (RLUs) were measured on a Victor luminometer (PerkinElmer) and the EC5o values were determined using a four-parameter logistic equation over a 10-point dose response curve (GraphPad Prism) (FIG. 15). The fold activation is calculated based on the maximum activation of the free payload 9d.

[2] = biological target: T1, LXR alpha (Homo sapiens, UniProt Q13133); test: LanthaScreen TR-FRET LXR alpha Coactivator Assay (cell-free binding); conditions: TR-FRET, 12-point curve; read-out: Cell free binding LXRα IC50
T1 construct: LXR alpha or beta LBD-GST; purchased ThermoFisher PV4655
T1 sequence (Q13133 209-447 limits assumed): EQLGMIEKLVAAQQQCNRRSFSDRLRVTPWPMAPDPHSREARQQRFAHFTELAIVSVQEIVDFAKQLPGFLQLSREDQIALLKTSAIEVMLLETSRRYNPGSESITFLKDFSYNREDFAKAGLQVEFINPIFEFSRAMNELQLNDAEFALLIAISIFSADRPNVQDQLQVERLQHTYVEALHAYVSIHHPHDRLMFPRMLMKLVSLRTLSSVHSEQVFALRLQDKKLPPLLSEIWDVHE
Method: (§1) To evaluate the ability of novel LXR agonists to bind to the LXR alpha and beta receptor, a cell-free binding assay was performed using a LanthaScreen TR-FRET LXR alpha Coactivator Assay Kit (ThermoFisher, Cat # PV4655) and LXR beta Coactivator Assay Kit (ThermoFisher, Cat # PV4658). The assay was performed according to the manufacturer's instructions. Briefly, a 3-fold serial dilution of LXR agonists were prepared in 100% DMSO starting at 100 μM (100× of final). Serial dilutions were further diluted 50-fold in nuclear receptor buffer F with 5 mM DTT, and transferred to a 384-well assay plate. Next, Fluorescein-D22, LXR alpha or beta LBD-GST, and Tb anti-GST antibody was sequentially added to 384-well assay plate. The plate was then incubated at rt for 2.5 hours while being protected from light. […] The IC50 values were determined using a four-parameter logistic equation over a 12-point response curve (GraphPad Prism).

[3] = biological target: T2, LXR beta (Homo sapiens, UniProt P55055); test: LanthaScreen TR-FRET LXR beta Coactivator Assay (cell-free binding); conditions: TR-FRET, 12-point curve; read-out: Cell free binding LXRβ IC50
T2 construct: LXR alpha or beta LBD-GST; purchased ThermoFisher PV4658
T2 sequence (P55055 222-460 limits assumed): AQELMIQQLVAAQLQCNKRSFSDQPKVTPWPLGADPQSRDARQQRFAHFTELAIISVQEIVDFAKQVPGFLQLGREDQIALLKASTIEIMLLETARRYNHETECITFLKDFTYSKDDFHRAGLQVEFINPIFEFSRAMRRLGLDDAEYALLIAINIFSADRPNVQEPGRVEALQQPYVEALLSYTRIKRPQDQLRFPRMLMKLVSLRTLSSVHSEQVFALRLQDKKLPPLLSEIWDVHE
Method: as §1

| Compound | EC50 [1] [nM] | Emax [1] [%] | IC50 [2] [nM] | IC50 [3] [nM] |
| --- | --- | --- | --- | --- |
| C[C@]1(C(=O)NC(=O)[C@@]2(C)CCC[C@]3(C)c4cc(O)ccc4CC[C@@H]23)CCC[C@]2(C)c3cc(O)ccc3CC[C@@H]12 [Compound 9a, (1S,4aS,10aR)-6-Hydroxy-N-((1S,4aS,10aR)-6-hydroxy-1,4a-dimethyl-1,2,3,4,4a,9,10,10a-octahydrophenanthrene-1-carbonyl)-1,4a-dimethyl-1,2,3,4,4a,9,10,10a-octahydrophenanthrene-1-carboxamide] | 1 to 10 | > 75 | – | – |
| C[C@]1(C(=O)NC(=O)[C@@]2(C)CCC[C@]3(C)c4cc(OCCO)ccc4CC[C@@H]23)CCC[C@]2(C)c3cc(O)ccc3CC[C@@H]12 [Compound 9b, (1S,4aS,10aR)-6-Hydroxy-N-((1S,4aS,10aR)-6-(2-hydroxyethoxy)-1,4a-dimethyl-1,2,3,4,4a,9,10,10a-octahydrophenanthrene-1-carbonyl)-1,4a-dimethyl-1,2,3,4,4a,9,10,10a-octahydrophenanthrene-1-carboxamide] | 1 to 10 | > 75 | < 10 | < 10 |
| C[C@]1(C(=O)NC(=O)[C@@]2(C)CCC[C@]3(C)c4cc(OCCN)ccc4CC[C@@H]23)CCC[C@]2(C)c3cc(O)ccc3CC[C@@H]12 [Compound 9c, (1S,4aS,10aR)-6-(2-Aminoethoxy)-N-((1S,4aS,10aR)-6-hydroxy-1,4a-dimethyl-1,2,3,4,4a,9,10,10a-octahydrophenanthrene-1-carbonyl)-1,4a-dimethyl-1,2,3,4,4a,9,10,10a-octahydrophenanthrene-1-carboxamide] | 10 to 100 | > 75 | 10 to 100 | < 10 |
| C[C@]1(C(=O)NC(=O)[C@@]2(C)CCC[C@]3(C)c4cc(N5CCNCC5)ccc4CC[C@@H]23)CCC[C@]2(C)c3cc(O)ccc3CC[C@@H]12 [Compound 9e, (1S,4aS,10aR)—N-((1S,4aS,10aR)-1,4a-Dimethyl-6-(piperazin-1-yl)-1,2,3,4,4a,9,10,10a-octahydrophenanthrene-1-carbonyl)-6-hydroxy-1,4a-dimethyl-1,2,3,4,4a,9,10,10a-octahydrophenanthrene-1-carboxamide] | 1 to 10 | > 75 | < 10 | < 10 |
| CN(C)c1ccc2c(c1)[C@@]1(C)CCC[C@](C)(C(=O)NC(=O)[C@@]3(C)CCC[C@]4(C)c5cc(O)ccc5CC[C@@H]34)[C@@H]1CC2 [Compound 9f, (1S,4aS,10aR)-6-(Dimethylamino)-N-((1S,4aS,10aR)-6-hydroxy-1,4a-dimethyl-1,2,3,4,4a,9,10,10a-octahydrophenanthrene-1-carbonyl)-1,4a-dimethyl-1,2,3,4,4a,9,10,10a-octahydrophenanthrene-1-carboxamide] | 1 to 10 | > 75 | < 10 | < 10 |
| C[C@]1(C(=O)NC(=O)[C@@]2(C)CCC[C@]3(C)c4cc(NC(=O)CCN)ccc4CC[C@@H]23)CCC[C@]2(C)c3cc(O)ccc3CC[C@@H]12 [Compound 9i, (1S,4aS,10aR)-6-(3-Aminopropanamido)-N-((1S,4aS,10aR)-6-hydroxy-1,4a-dimethyl-1,2,3,4,4a,9,10,10a-octahydrophenanthrene-1-carbonyl)-1,4a-dimethyl-1,2,3,4,4a,9,10,10a-octahydrophenanthrene-1-carboxamide] | 10 to 100 | 25 to 75 | < 10 | < 10 |
| C[C@]1(CNC(=O)[C@@]2(C)CCC[C@]3(C)c4cc(O)ccc4CC[C@@H]23)CCC[C@]2(C)c3cc(O)ccc3CC[C@@H]12 [Compound 9u, (1S,4aS,10aR)—N-{[(1S,4aS,10aR)-6-Hydroxy-1,4a-dimethyl-1,2,3,4,4a,9,10,10a-octahydrophenanthren-1-yl]methyl}-6-hydroxy-1,4a-dimethyl-1,2,3,4,4a,9,10,10a-octahydrophenanthrene-1-carboxamide] | 1 to 10 | 25 to 75 | – | – |
| O=S(=O)(c1ccccc1)N(CC(F)(F)F)c1ccc(C(O)(C(F)(F)F)C(F)(F)F)cc1 [Compound T0901317, reference compound] | 10 to 100 | > 75 | – | – |
